Results published in paper PMC8802628, “Selective activation of PFKL suppresses the phagocytic oxidative burst” (Cell, 2021).

Legend:
human PFKM = target: T1, human PFKM (Homo sapiens, UniProt P08237); assay: Recombinant PFKM activity assay; format: biochemical; details: for activation of PFKM: at concentrations up to 100 μM
T1 construct: made in house; host or cells: Sf9 insect cells (baculovirus)
T1 sequence (P08237 1-780): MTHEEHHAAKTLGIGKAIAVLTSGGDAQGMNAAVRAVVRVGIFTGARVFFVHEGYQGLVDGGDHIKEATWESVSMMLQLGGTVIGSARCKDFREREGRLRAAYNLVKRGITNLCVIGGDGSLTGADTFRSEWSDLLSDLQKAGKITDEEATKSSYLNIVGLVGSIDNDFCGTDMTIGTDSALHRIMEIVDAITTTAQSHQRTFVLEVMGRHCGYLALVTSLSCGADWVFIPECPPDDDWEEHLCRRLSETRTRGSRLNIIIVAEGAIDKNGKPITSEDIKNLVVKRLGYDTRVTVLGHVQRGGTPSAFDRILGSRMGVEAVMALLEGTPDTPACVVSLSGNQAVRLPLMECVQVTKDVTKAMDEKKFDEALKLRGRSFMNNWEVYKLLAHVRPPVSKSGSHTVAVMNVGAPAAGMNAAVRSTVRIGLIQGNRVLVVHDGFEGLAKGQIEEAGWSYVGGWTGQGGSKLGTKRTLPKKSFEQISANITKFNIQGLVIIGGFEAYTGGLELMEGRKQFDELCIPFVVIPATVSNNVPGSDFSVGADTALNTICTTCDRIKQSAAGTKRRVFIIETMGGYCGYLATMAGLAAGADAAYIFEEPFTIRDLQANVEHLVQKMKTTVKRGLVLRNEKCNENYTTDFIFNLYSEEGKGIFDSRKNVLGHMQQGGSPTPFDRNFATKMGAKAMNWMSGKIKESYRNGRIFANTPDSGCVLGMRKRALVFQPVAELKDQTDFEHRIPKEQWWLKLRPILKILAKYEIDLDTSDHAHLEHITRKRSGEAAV
Excerpt: (§1) Recombinant N-terminal His-tagged human PFKL (NP_002617), PFKM (NP_000280), and PFKP (NM_002627.4) were generated as described ([Webb et al., 2015], [2017]). Point mutants of PFK1 were generated using the QuikChange Lightning kit (Aligent).
(§2) His-tagged PFK1 was expressed and purified as described with slight modifications ([Webb et al., 2015], [2017]). Briefly, baculovirus was generated using the Bac-to-Bac Expression system (Invitrogen). PFK1 was expressed in 2-5 × 10^6 sf9 cells at a multiplicity of infection of two for 48 h. Cells were lysed in 20 mM HEPES, pH 7.5, 80 mM potassium phosphate, 1 mM 2-mercapentoethanol, 10% glycerol, 10 mM imidazole, and EDTA-free Protease Inhibitor Cocktail (Abcam) with a Dounce homogenizer. The soluble lysate was incubated with HisPur cobalt resin (ThermoFisher Scientific). The resin was washed with 5 bead volumes lysis buffer, 10 bead volumes lysis buffer containing 2 M NaCl, and 5 further bead volumes lysis buffer. PFK1 was eluted in lysis buffer containing 100 mM imidazole. Fractions containing protein were pooled, passed over a desalting column equilibrated in freezing buffer [20 mM HEPES pH 7.5, 1 mM DTT, 500 μM ammonium sulfate, 5% glycerol, 1 mM ATP, and 100 μM EDTA] and concentrated using an Amicon Ultracel-30K Centrifugal Filter Unit (MilliporeSigma). Protein was quantified using a Bradford Protein Assay kit (ThermoFisher Scientific), and aliquotes frozen in liquid nitrogen for storage at −80°C.
(§3) PFK1 activity was determined using the rate of FBP production via an auxiliary enzyme assay adapted to a 96-well format ([Brüser et al., 2012]; [Webb et al., 2015]). The auxiliary enzymes aldolase, triosephosphate isomerase, and glycerol phosphate dehydrogenase were purchased from MilliporeSigma as ammonium sulfate slurries and desalted using an Amicon Ultracel-10K Centrifugal Filter Unit. For assays containing FBP, the rate of ADP production was determined using the auxiliary enzymes pyruvate kinase (PK) and lactate dehydrogenase (LDH) (MilliporeSigma) in a buffer containing 250 μM phosphoenolpyruvic acid, […] NADH, 50 mM HEPES pH 7.5, 100 mM KCl, 1 mM DTT, and effector concentrations as described in the text. The temperature was equilibrated to 25°C for 5 min before initiating the reaction 10 mM MgCl2. Absorbance at 340 nm was measured using a Varioskan LUX Multimode microplate reader (ThermoFisher). Kinetic parameters were generated by nonlinear regression analysis using Prism (GraphPad Software) and are the mean of a minimum of three measurements from two independent preparations of protein. One unit of activity was defined as the amount of enzyme that catalyzed the formation of 1 μmol of fructose 1,6-bisphosphate per min at 25°C. […]

[1] = target: T2, PFKL(V545L, V582M) (PFKL−hook) (Homo sapiens, UniProt P17858, V545L/V582M); assay: Recombinant PFKL−hook activity assay; format: biochemical; details: for EC50: pH 7.5, 3.1 mM ATP, 2.5 mM F6P, mean ± SEM, read-out: EC50, activation of PFKL−hook
T2 construct: made in house; host or cells: Sf9 insect cells (baculovirus)
T2 sequence (P17858 1-780 V545L/V582M): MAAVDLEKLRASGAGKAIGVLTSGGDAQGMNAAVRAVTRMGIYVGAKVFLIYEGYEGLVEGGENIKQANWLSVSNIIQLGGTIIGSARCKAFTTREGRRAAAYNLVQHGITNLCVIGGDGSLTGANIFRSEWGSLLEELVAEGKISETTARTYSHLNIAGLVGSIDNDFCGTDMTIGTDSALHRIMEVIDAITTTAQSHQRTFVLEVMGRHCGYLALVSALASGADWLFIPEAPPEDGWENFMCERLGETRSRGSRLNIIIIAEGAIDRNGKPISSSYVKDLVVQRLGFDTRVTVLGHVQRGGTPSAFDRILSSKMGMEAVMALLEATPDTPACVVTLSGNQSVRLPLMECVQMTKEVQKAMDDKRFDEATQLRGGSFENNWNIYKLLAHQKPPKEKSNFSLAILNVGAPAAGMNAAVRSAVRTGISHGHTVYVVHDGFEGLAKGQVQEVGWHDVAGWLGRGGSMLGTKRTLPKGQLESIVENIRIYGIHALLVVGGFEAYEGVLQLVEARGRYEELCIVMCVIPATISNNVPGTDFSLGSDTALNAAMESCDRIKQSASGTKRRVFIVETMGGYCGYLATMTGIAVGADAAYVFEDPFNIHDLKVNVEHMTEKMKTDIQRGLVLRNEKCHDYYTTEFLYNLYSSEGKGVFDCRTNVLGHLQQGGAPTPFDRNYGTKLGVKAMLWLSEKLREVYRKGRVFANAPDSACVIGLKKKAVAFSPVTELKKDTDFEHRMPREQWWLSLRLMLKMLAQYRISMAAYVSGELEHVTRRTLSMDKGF
Excerpt: as §1, §2, §3

[2] = PFKM wild type, pH 7.0, 250 μM ATP

| SMILES | activation of PFKM (human PFKM) | EC50 [1] [nM] | other results |
| --- | --- | --- | --- |
| CC(=O)Nc1ccc2c(c1)OCc1cc(-c3ccccc3C#CCCCO)nn1C2 [NA-11] | failed to activate | 53.3 ± 5.77 | – |
| CC(=O)Nc1ccc2c(c1)OCc1cc(-c3ccccc3)nn1C2 [NA-5] | – | 18.1 ± 3.19 | – |
| O=C(CO)[C@@H](O)[C@H](O)[C@H](O)COP(=O)(O)O [F6P, fructose 6-phosphate] | – | – | Vmax,F6P (human PFKM; [2]): 19.14 ± 0.74 micromoles FBP per minute per milligram PFK1; hF6P (Hill coefficient) (human PFKM; [2]): 4.62 ± 1.38; Vmax,F6P ([1]; PFKL−hook, pH 7.5, 225 μM ATP): 11.50 ± 0.57 micromoles FBP per minute per milligram PFK1; hF6P (Hill coefficient) ([1]; PFKL−hook, pH 7.5, 225 μM ATP): 2.87 ± 0.50 |
| COc1ccccc1-c1cc2n(n1)Cc1ccc(NC(C)=O)cc1OC2 [LDC7559, reference compound] | failed to activate | – | – |
